# The supplement of paper PMC10307832
# How the values were obtained:
# Assay in all cases: relative viability (nuclei count vs DMSO), 5 days (fraction); higher = more cells survive
# [1] = tested on: A-427
# Outline: (§1)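 Lung cancer cell lines, seeded in 1536-well plates, were treated the following day by pin tool with a single drug or with five library-drug doses (not always all listed) in √10 steps on top of a fixed anchor-drug dose. Cells were fixed and nuclei stained in one step after 5 days, and nuclei were counted. Relative viability is the nuclei count for treated wells divided by that for vehicle wells, reported as medians of duplicate plates.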
# [2] = tested on: BEN
# Outline: as §1
# [3] = tested on: HARA
# Outline: as §1
# [4] = tested on: LCLC-97TM1
# Outline: as §1
# [5] = tested on: LOU-NH91
# Outline: as §1
# [6] = tested on: LU99A
# Outline: as §1
# [7] = tested on: LXF-289
# Outline: as §1
# [8] = tested on: NCI-H1395
# Outline: as §1
# [9] = tested on: NCI-H1666
# Outline: as §1
# [10] = tested on: NCI-H1755
# Outline: as §1
# [11] = tested on: NCI-H1793
# Outline: as §1
# [12] = tested on: NCI-H1915
# Outline: as §1
# [13] = tested on: NCI-H1944
# Outline: as §1
# [14] = tested on: NCI-H2023
# Outline: as §1
# [15] = tested on: NCI-H2126
# Outline: as §1
# [16] = tested on: NCI-H2170
# Outline: as §1
# [17] = tested on: NCI-H23
# Outline: as §1
# [18] = tested on: NCI-H322M
# Outline: as §1
# [19] = tested on: NCI-H441
# Outline: as §1
# [20] = tested on: NCI-H460
# Outline: as §1
# [21] = tested on: NCI-H650
# Outline: as §1
# [22] = tested on: PC-3 [JPC-3]
# Outline: as §1
# [23] = tested on: SK-LU-1
# Outline: as §1
smiles,measurement,setting,value
Cc1cnc(-c2cnc(NCCNc3ccc(C#N)cn3)nc2-c2ccc(Cl)cc2Cl)[nH]1 + COc1cccc2cc(-c3nc([C@H]4CC[C@H](C(=O)O)CC4)n4ncnc(N)c34)[nH]c12 [OSI-027] (partner 0.5 µM),relative viability,[1]; first compound 0.08 µM,0.547
same,relative viability,[1]; first compound 0.253 µM,0.41
same,relative viability,[1]; first compound 0.8 µM,0.608
same,relative viability,[1]; first compound 2.53 µM,0.653
same,relative viability,[2]; first compound 0.08 µM,0.352
same,relative viability,[2]; first compound 0.253 µM,0.307
same,relative viability,[2]; first compound 0.8 µM,0.324
same,relative viability,[2]; first compound 2.53 µM,0.371
same,relative viability,[3]; first compound 0.08 µM,0.554
same,relative viability,[3]; first compound 0.253 µM,0.376
same,relative viability,[3]; first compound 0.8 µM,0.469
same,relative viability,[3]; first compound 2.53 µM,0.562
same,relative viability,[4]; first compound 0.08 µM,0.648
same,relative viability,[4]; first compound 0.8 µM,0.646
same,relative viability,[4]; first compound 2.53 µM,0.688
same,relative viability,[5]; first compound 0.08 µM,0.732
same,relative viability,[5]; first compound 0.253 µM,0.709
same,relative viability,[5]; first compound 0.8 µM,0.751
same,relative viability,[5]; first compound 2.53 µM,0.673
same,relative viability,[6]; first compound 0.08 µM,0.291
same,relative viability,[6]; first compound 0.253 µM,0.304
same,relative viability,[6]; first compound 0.8 µM,0.327
same,relative viability,[6]; first compound 2.53 µM,0.401
same,relative viability,[7]; first compound 0.08 µM,0.926
same,relative viability,[7]; first compound 0.253 µM,0.777
same,relative viability,[7]; first compound 0.8 µM,0.882
same,relative viability,[7]; first compound 2.53 µM,0.829
same,relative viability,[8]; first compound 0.08 µM,0.828
same,relative viability,[8]; first compound 0.253 µM,0.525
same,relative viability,[8]; first compound 0.8 µM,0.602
same,relative viability,[8]; first compound 2.53 µM,0.67
same,relative viability,[9]; first compound 0.08 µM,0.828
same,relative viability,[9]; first compound 0.253 µM,0.77
same,relative viability,[9]; first compound 0.8 µM,0.894
same,relative viability,[9]; first compound 2.53 µM,0.903
same,relative viability,[10]; first compound 0.08 µM,0.81
same,relative viability,[10]; first compound 0.253 µM,0.737
same,relative viability,[10]; first compound 0.8 µM,0.726
same,relative viability,[10]; first compound 2.53 µM,0.756
same,relative viability,[11]; first compound 0.08 µM,0.322
same,relative viability,[11]; first compound 0.253 µM,0.276
same,relative viability,[11]; first compound 0.8 µM,0.191
same,relative viability,[11]; first compound 2.53 µM,0.279
same,relative viability,[12]; first compound 0.08 µM,0.715
same,relative viability,[12]; first compound 0.253 µM,0.586
same,relative viability,[12]; first compound 0.8 µM,0.658
same,relative viability,[12]; first compound 2.53 µM,0.812
same,relative viability,[13]; first compound 0.08 µM,0.422
same,relative viability,[13]; first compound 0.8 µM,0.489
same,relative viability,[13]; first compound 2.53 µM,0.685
same,relative viability,[14]; first compound 0.08 µM,0.565
same,relative viability,[14]; first compound 0.253 µM,0.395
same,relative viability,[14]; first compound 0.8 µM,0.431
same,relative viability,[14]; first compound 2.53 µM,0.715
same,relative viability,[15]; first compound 0.08 µM,0.704
same,relative viability,[15]; first compound 0.253 µM,0.622
same,relative viability,[15]; first compound 0.8 µM,0.64
same,relative viability,[15]; first compound 2.53 µM,0.776
same,relative viability,[16]; first compound 0.08 µM,0.732
same,relative viability,[16]; first compound 0.253 µM,0.554
same,relative viability,[16]; first compound 0.8 µM,0.705
same,relative viability,[16]; first compound 2.53 µM,0.609
same,relative viability,[17]; first compound 0.08 µM,0.592
same,relative viability,[17]; first compound 0.253 µM,0.539
same,relative viability,[17]; first compound 0.8 µM,0.58
same,relative viability,[17]; first compound 2.53 µM,0.678
same,relative viability,[18]; first compound 0.08 µM,0.641
same,relative viability,[18]; first compound 0.253 µM,0.658
same,relative viability,[18]; first compound 0.8 µM,0.45
same,relative viability,[18]; first compound 2.53 µM,1.3
same,relative viability,[19]; first compound 0.08 µM,0.739
same,relative viability,[19]; first compound 0.253 µM,0.664
same,relative viability,[19]; first compound 0.8 µM,0.453
same,relative viability,[19]; first compound 2.53 µM,0.459
same,relative viability,[20]; first compound 0.08 µM,0.749
same,relative viability,[20]; first compound 0.253 µM,0.582
same,relative viability,[20]; first compound 0.8 µM,0.675
same,relative viability,[20]; first compound 2.53 µM,0.669
same,relative viability,[21]; first compound 0.08 µM,0.571
same,relative viability,[21]; first compound 0.253 µM,0.517
same,relative viability,[21]; first compound 0.8 µM,0.582
same,relative viability,[21]; first compound 2.53 µM,0.486
same,relative viability,[22]; first compound 0.08 µM,0.831
same,relative viability,[22]; first compound 0.253 µM,0.757
same,relative viability,[22]; first compound 0.8 µM,0.692
same,relative viability,[22]; first compound 2.53 µM,0.742
same,relative viability,[23]; first compound 0.08 µM,0.344
same,relative viability,[23]; first compound 0.253 µM,0.336
same,relative viability,[23]; first compound 0.8 µM,0.35
same,relative viability,[23]; first compound 2.53 µM,0.463
Cc1cnc(-c2cnc(NCCNc3ccc(C#N)cn3)nc2-c2ccc(Cl)cc2Cl)[nH]1 + CS(=O)(=O)N1CCN(Cc2cc3nc(-c4cccc5[nH]ncc45)nc(N4CCOCC4)c3s2)CC1 [Pictilisib] (partner 1 µM),relative viability,[1]; first compound 0.08 µM,0.758
same,relative viability,[1]; first compound 0.253 µM,0.705
same,relative viability,[1]; first compound 0.8 µM,0.696
same,relative viability,[1]; first compound 2.53 µM,0.619
same,relative viability,[2]; first compound 0.08 µM,0.572
same,relative viability,[2]; first compound 0.253 µM,0.596
same,relative viability,[2]; first compound 0.8 µM,0.612
same,relative viability,[2]; first compound 2.53 µM,0.648
same,relative viability,[3]; first compound 0.08 µM,0.398
same,relative viability,[3]; first compound 0.253 µM,0.414
same,relative viability,[3]; first compound 0.8 µM,0.433
same,relative viability,[3]; first compound 2.53 µM,0.454
same,relative viability,[4]; first compound 0.08 µM,0.231
same,relative viability,[4]; first compound 0.253 µM,0.234
same,relative viability,[4]; first compound 0.8 µM,0.158
same,relative viability,[4]; first compound 2.53 µM,0.172
same,relative viability,[5]; first compound 0.08 µM,0.532
same,relative viability,[5]; first compound 0.253 µM,0.531
same,relative viability,[5]; first compound 0.8 µM,0.504
same,relative viability,[5]; first compound 2.53 µM,0.564
same,relative viability,[6]; first compound 0.08 µM,0.314
same,relative viability,[6]; first compound 0.253 µM,0.348
same,relative viability,[6]; first compound 0.8 µM,0.348
same,relative viability,[6]; first compound 2.53 µM,0.41
same,relative viability,[7]; first compound 0.08 µM,0.841
same,relative viability,[7]; first compound 0.253 µM,0.745
same,relative viability,[7]; first compound 0.8 µM,0.845
same,relative viability,[7]; first compound 2.53 µM,0.877
same,relative viability,[8]; first compound 0.08 µM,0.759
same,relative viability,[8]; first compound 0.253 µM,0.585
same,relative viability,[8]; first compound 0.8 µM,0.601
same,relative viability,[8]; first compound 2.53 µM,0.65
same,relative viability,[9]; first compound 0.08 µM,0.434
same,relative viability,[9]; first compound 0.253 µM,0.295
same,relative viability,[9]; first compound 0.8 µM,0.332
same,relative viability,[9]; first compound 2.53 µM,0.589
same,relative viability,[10]; first compound 0.08 µM,0.507
same,relative viability,[10]; first compound 0.253 µM,0.411
same,relative viability,[10]; first compound 0.8 µM,0.386
same,relative viability,[10]; first compound 2.53 µM,0.559
same,relative viability,[11]; first compound 0.08 µM,0.315
same,relative viability,[11]; first compound 0.253 µM,0.351
same,relative viability,[11]; first compound 0.8 µM,0.412
same,relative viability,[11]; first compound 2.53 µM,0.596
same,relative viability,[12]; first compound 0.08 µM,0.958
same,relative viability,[12]; first compound 0.8 µM,0.939
same,relative viability,[12]; first compound 2.53 µM,1.01
same,relative viability,[13]; first compound 0.08 µM,0.342
same,relative viability,[13]; first compound 0.8 µM,0.334
same,relative viability,[13]; first compound 2.53 µM,0.38
same,relative viability,[14]; first compound 0.08 µM,0.334
same,relative viability,[14]; first compound 0.253 µM,0.271
same,relative viability,[14]; first compound 0.8 µM,0.307
same,relative viability,[14]; first compound 2.53 µM,0.813
same,relative viability,[15]; first compound 0.08 µM,0.512
same,relative viability,[15]; first compound 0.253 µM,0.468
same,relative viability,[15]; first compound 0.8 µM,0.494
same,relative viability,[15]; first compound 2.53 µM,0.559
same,relative viability,[16]; first compound 0.08 µM,0.29
same,relative viability,[16]; first compound 0.253 µM,0.307
same,relative viability,[16]; first compound 0.8 µM,0.261
same,relative viability,[16]; first compound 2.53 µM,0.318
same,relative viability,[17]; first compound 0.08 µM,0.511
same,relative viability,[17]; first compound 0.253 µM,0.56
same,relative viability,[17]; first compound 0.8 µM,0.535
same,relative viability,[17]; first compound 2.53 µM,0.613
same,relative viability,[18]; first compound 0.08 µM,0.59
same,relative viability,[18]; first compound 0.253 µM,0.523
same,relative viability,[18]; first compound 0.8 µM,0.413
same,relative viability,[18]; first compound 2.53 µM,0.538
same,relative viability,[19]; first compound 0.08 µM,0.486
same,relative viability,[19]; first compound 0.253 µM,0.376
same,relative viability,[19]; first compound 0.8 µM,0.428
same,relative viability,[19]; first compound 2.53 µM,0.553
same,relative viability,[20]; first compound 0.08 µM,0.243
same,relative viability,[20]; first compound 0.253 µM,0.378
same,relative viability,[20]; first compound 0.8 µM,0.318
same,relative viability,[20]; first compound 2.53 µM,0.504
same,relative viability,[21]; first compound 0.08 µM,0.936
same,relative viability,[21]; first compound 0.253 µM,1.03
same,relative viability,[21]; first compound 0.8 µM,0.916
same,relative viability,[21]; first compound 2.53 µM,0.873
same,relative viability,[22]; first compound 0.08 µM,0.772
same,relative viability,[22]; first compound 0.253 µM,0.666
same,relative viability,[22]; first compound 0.8 µM,0.798
same,relative viability,[22]; first compound 2.53 µM,0.79
same,relative viability,[23]; first compound 0.08 µM,0.701
same,relative viability,[23]; first compound 0.253 µM,0.604
same,relative viability,[23]; first compound 0.8 µM,0.623
same,relative viability,[23]; first compound 2.53 µM,0.754
